Measurements from patent EP0147146A2, “Enhancement of transdermal drug delivery” (AMERICAN HOME PRODUCTS CORPORATION, priority 1983, dated 1985).
Counter-ions that a name gives are not always drawn. One block for each molecule: values may come before it.

Test: in-vitro percutaneous transfer test with nude mouse skin in a diffusion cell
Format: in vitro ADME
Experimental: The test formulation was first impregnated into 1-inch diameter circles of a thin non-woven rayon fabric usually in amounts representing about 20 mg or more per cm^2 of skin. The impregnated fabric was applied to the outside or epidermal side of the skin while the inside or tissue side of the skin was exposed to an aerated and stirred volume of Ringer's injection fluid maintained at about 37° C. Samples were taken at intervals from the stirred solution and assayed for drug content. The calculated total amount of percutaneously transferred drug is expressed as mg drug per cm^2 of exposed skin.
Two circles of non-woven fabric were impregnated with each formulation (designated A1, A2 and B1, B2 respectively) and tested for percutaneous drug transfer across nude mouse skin.
Two circles of nonwoven fabric were impregnated with each formulation, so as to contain 2-3 mg of conjugated estrogens. These were applied to nude mouse skins (6 em^2 exposed surface) for transdermal penetration tests. The average of duplicate tests is given below, in units of µg of transferred estrogen per cm^2 of exposed skin surface.

SMILES: C[C@]12CC[C@@H]3c4ccc(OS(=O)(=O)O)cc4CC[C@H]3[C@@H]1CC[C@@H]2O [17-B -estradiol-3-sodium sulfate]
flux rates of formulations containing menthol: significantly higher flux rates

SMILES: C[C@]12CC[C@@H]3c4ccc(O)cc4CC[C@H]3[C@@H]1CC[C@@H]2O [17-β -estradiol]
percutaneous transfer with and without menthol (lipophilic vehicles, nude mouse skin): no significant differences

increase in percutaneous transfer in the presence of menthol (with vs without 5% menthol in a glycerol/propylene glycol vehicle, nude mouse skin): about a three fold increase
SMILES: CCc1cccc2c3c([nH]c12)C(CC)(CC(=O)O)OCC3 (stereo not drawn) [etodolac, 1.8-diethyl-1,3,4,9-tetrahydropyrano[3,4-b] indole-1-acetic acid]
